Measurements reported in paper PMC3196298 (Bioorganic & medicinal chemistry, 2011).

Key:
BoNT/A induced paralysis = conditions: cited from earlier work
[1] = in vivo; cited from earlier work
AChE [2] = biological target: AChE (Electrophorus electricus, UniProt O42275); format: biochemical
[3] = biological target: AChE purified from Electrophorus electricus (Electric eel) (Electrophorus electricus, UniProt O42275); experiment: biochemical; format: biochemical
cholinergic esterases = format: biochemical
BChE = BChE (Equus caballus, UniProt P81908); format: biochemical, equine
AChE [4] = conditions: cited from earlier work

AChE purified from Electrophorus electricus (Electric eel), sequence (O42275 24-633): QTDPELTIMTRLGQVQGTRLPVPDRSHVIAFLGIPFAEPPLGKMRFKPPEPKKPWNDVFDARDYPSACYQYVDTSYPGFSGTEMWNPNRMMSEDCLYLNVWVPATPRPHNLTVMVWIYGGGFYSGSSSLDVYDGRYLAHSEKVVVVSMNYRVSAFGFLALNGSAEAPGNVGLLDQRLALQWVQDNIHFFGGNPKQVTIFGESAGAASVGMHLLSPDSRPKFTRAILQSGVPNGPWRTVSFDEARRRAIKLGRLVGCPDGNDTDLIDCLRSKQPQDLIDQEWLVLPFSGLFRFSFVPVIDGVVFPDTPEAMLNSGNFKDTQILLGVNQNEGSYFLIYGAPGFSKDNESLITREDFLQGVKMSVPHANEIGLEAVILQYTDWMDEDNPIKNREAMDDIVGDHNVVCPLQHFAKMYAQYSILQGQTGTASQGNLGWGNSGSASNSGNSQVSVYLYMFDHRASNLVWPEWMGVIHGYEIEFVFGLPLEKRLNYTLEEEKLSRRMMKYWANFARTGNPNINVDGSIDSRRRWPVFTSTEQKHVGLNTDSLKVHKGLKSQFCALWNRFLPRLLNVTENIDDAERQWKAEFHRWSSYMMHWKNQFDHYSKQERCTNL
AChE (Electrophorus electricus, UniProt O42275), sequence (O42275 24-633): as above
BChE, sequence (P81908 whole entry): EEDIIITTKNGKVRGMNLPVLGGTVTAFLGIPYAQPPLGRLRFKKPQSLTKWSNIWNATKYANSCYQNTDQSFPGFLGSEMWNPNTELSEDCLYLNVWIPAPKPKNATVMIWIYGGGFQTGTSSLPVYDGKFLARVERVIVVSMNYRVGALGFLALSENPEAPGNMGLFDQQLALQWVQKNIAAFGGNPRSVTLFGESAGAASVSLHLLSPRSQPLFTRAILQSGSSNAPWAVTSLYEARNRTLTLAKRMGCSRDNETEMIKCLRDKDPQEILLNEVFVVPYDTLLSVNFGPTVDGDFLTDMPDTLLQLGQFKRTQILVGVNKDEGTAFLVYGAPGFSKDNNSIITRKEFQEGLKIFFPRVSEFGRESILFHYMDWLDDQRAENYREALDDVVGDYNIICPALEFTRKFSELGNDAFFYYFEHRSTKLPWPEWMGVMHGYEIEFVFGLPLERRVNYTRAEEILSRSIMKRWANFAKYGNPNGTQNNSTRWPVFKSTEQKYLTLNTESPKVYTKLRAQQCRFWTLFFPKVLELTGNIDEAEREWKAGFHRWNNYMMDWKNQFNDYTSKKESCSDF

## C#CC[n+]1ccc(N)c(N)c1 [3,4-diamino-1-(prop-2-ynl)pyridinium]
BoNT/A induced paralysis
  paralysis reversal (in words): paralysis reversal

## Nc1cncc(N)c1N [3,4,5-triaminopyridine]
BoNT/A induced paralysis
  paralysis reversal (in words): paralysis reversal

## Nc1ccncc1 [4-AP, 4-aminopyridine]
[1]
  toxicity issues at high doses (in words): seizures

## CC(C)OC(=O)CCC(=O)Nc1ccncc1N [Compound 32]
AChE [2]
  release of 3,4-DAP upon incubation with AChE (in words): negligible release of 3,4-DAP
[3]
  Ki: 3 µM
  selectivity of AChE over BChE (in words): inhibited AChE selectively over BChE
other
  half-life in mouse sera: 2.8 h

## COC(=O)Nc1cnccc1N [Compound 16]
Cholinergic esterases
  enzymatic generation of 3,4-DAP (in words): failed as pseudosubstrates to generate 3,4-DAP enzymatically

## CC(C)C(=O)Oc1ccc(COC(=O)Nc2ccncc2N)cc1 [Compound 6d]
BChE
  apparent kcat relative to natural substrate BCh: approximately 10^−4
[3]
  binding to AChE more tightly than Km for ACh: 100 fold
  selectivity of AChE over BChE (in words): moderate selectivity

## CCC(=O)Oc1ccc(COC(=O)Nc2ccncc2N)cc1 [Compound 6b]
BChE
  apparent kcat relative to natural substrate BCh: approximately 10^−4
[3]
  binding to AChE more tightly than Km for ACh: 100 fold
  selectivity of AChE over BChE (in words): moderate selectivity

## COC(=O)Nc1ccncc1N [Compound 19]
Cholinergic esterases
  enzymatic generation of 3,4-DAP (in words): failed as pseudosubstrates to generate 3,4-DAP enzymatically

## CC(=O)OCC[N+](C)(C)C [ACh, acetylcholine]
AChE [4]
  Km: 400 µM

## CC(=O)Nc1ccncc1N [Compound 21]
AChE [2]
  release of 3,4-DAP upon incubation with AChE (in words): did not undergo internal release
[3]
  kinetic mechanism of inhibition of AChE: competitive inhibition

## COC(=O)Nc1ccncc1NC(=O)OC [Compound 17]
Cholinergic esterases
  enzymatic generation of 3,4-DAP (in words): failed as pseudosubstrates to generate 3,4-DAP enzymatically

## Nc1ccncc1N [3,4-DAP, 3,4-diaminopyridine]
[1]
  toxicity issues at high doses (in words): seizures
